Data taken from publication PMC10992376, “High coenzyme affinity chimeric amine dehydrogenase based on domain engineering” (Bioresources and Bioprocessing, 2022).
Like-named read-outs stand apart in the source and are kept apart here.

System: T1, cFLF-AmDH
T1 construct: gene pdh; KS/NL parents; C-terminal His6; E. coli BL21(DE3)
Test: NADH oxidation at […] nm, Michaelis-Menten fit
Type: biochemical, Pseudobacillus badius
Conditions: 2 M NH4Cl/NH4OH, optimum pH and temperature (table note; Methods: 100 mM NH4Cl/NH4OH, pH 8.5, 30 °C)

| SMILES | Km (co-substrate NADH, ammonium, read-out: pFPA / Km) [mM] | Km (read-out: NADH / Km, co-substrate pFPA) [mM] |
| --- | --- | --- |
| CC(=O)Cc1ccc(F)cc1 [p-FPA] | 21.8 ± 2.67 |  |
| NC(=O)C1=CN([C@@H]2O[C@H](COP(=O)(O)OP(=O)(O)OC[C@H]3O[C@@H](n4cnc5c(N)ncnc54)[C@H](O)[C@@H]3O)[C@@H](O)[C@H]2O)C=CC1 [NADH] |  | 0.49 ± 0.02 |
